# In PMC6828666, “Discovery of holoenzyme-disrupting chemicals as substrate-selective CK2 inhibitors” (Scientific Reports, 2019):
# What was measured:
# [1] = test system: CK2β-depleted MCF10A cells (ΔCK2β); assay: Cell growth inhibition in CK2β-depleted cells (IncuCyte); assay type: cell-based, human; conditions: 50 μM; ΔCK2β vs WT MCF10A
# Description: Cells grown on 96-well flat-bottomed plates (Corning Falcon) were tracked using an Essen IncuCyte Zoom live-cell microscopy instrument, an automated live cell imager with high-throughput capabilities and built-in data analysis. Experiments were conducted at 37 °C and 5% CO2. The software incorporated into the IncuCyte Zoom was used to analyze the images.
# MCF10A and MDA-MB231 cells were seeded into 96-well plates at a density (1 × 10^4 and 2 × 10^4 cells/well, respectively) and allowed to attach overnight. Bright field images were captured every 3 h for the duration of the experiment. The detection software was calibrated specifically for MCF10A and MDA-MB231 to ensure accurate distinction of cells from empty space. Cell proliferation data were obtained by the cell confluence increment in each of the treatments and expressed as percentage relative to that of control cells.
# Fig. S9. […] (a) MCF10A cells were incubated with increasing concentrations of 6 for 24 h. (b) Inset: western blot analysis of CK2 subunits in parental MCF10A cells (WT) or CK2β knockdown MCF10A cells (∆CK2β). Uncropped blots are shown in Supplementary Fig. S16. MCF10A WT (r,p) or MCF10A ∆CK2β (○,●) were incubated with DMSO (r,○) or 50 μM 6 (p,●) for the indicated time. Cell growth was monitored using an Essen IncuCyte Zoom live-cell microscopy incubator. Images were captured every 15 min for the duration of the experiment. […]
# [2] = biological target: T1, CK2 subunit association in MCF10A cells (Homo sapiens, UniProt P68400); assay: Anti-CK2β immunoprecipitation from treated MCF10A cells; assay type: cell-based; conditions: 75 μM, 4 h; CK2β-dependent and CK2β-independent substrate; vs DMSO
# T1 construct: endogenous in cells; host or cells: MCF10A
# Description: The transient nature of the CK2 holoenzyme has been highlighted by the elucidation of its structure. Furthermore, analysis of the spatiotemporal organization of individual CK2 subunits in living cells has shown that they are highly dynamic[10],[12]. Thus, we evaluated the effect of 6 on the CK2 subunit association in human mammary epithelial cells, using two independent strategies. First, CK2β was immunoprecipitated from extracts of MCF10A cells treated with DMSO as control or 75 μM of 6, and the amount of CK2α or CK2 catalytic activity recovered in the immunoprecipitates were analyzed by western blot and CK2 activity assay.
# Anti-CK2β immunoprecipitates were prepared from MCF10A cells incubated with DMSO (0.5%) or 75 μM 6 for 4 h. The corresponding immunoprecipitates were analyzed for the presence of CK2 subunits by Western blot (a) and quantified in (b) or for CK2 activity with CK2β-independent and CK2β-dependent peptide substrate (c). […] (d) In situ proximity ligation images of MCF10A cells incubated with 50 μM 6 for 3 h. (e) Number of fluorescent dots per cell was quantified using the BlobFinder software. n = 120 cells from two independent experiments. Mann Whitney test was used and results were found significant (*p-value = 0.0003 and **p-value = 0.044). TEXT PRINTED IN THE PICTURE: (a) 6: Ratio CK2α/CK2β relative to control: 0.77 (75 μM)
# Pim-1 = biological target: T2, Pim-1 (Homo sapiens, UniProt P11309); assay: Kinase selectivity profiling (Millipore Kinase profiler); assay type: biochemical; conditions: 100 μM compound; 10 μM ATP
# T2 construct: purchased Millipore (Upstate Kinase Profiler Panel Service)
# Description: (§1) Kinase selectivity of compound 1 was assessed using a panel of 45 recombinant protein kinases. The assays were performed at 10 μM ATP in the presence of 100 μM inhibitor using the Kinase profiler panel service (Millipore). Inhibition, expressed as the percent of activity determined in the absence of inhibitor, was calculated from the residual activity measured in the presence of 100 μM inhibitor.
# (§2) Fig. S4. Kinase selectivity profile of compound 1 on a panel of 45 different protein kinases. The assays were performed at 10 μM ATP in the presence of 100 μM compound 1 using the Upstate Kinase Profiler Panel Service (Millipore). Residual activity in presence of 100 μM compound 1 are depicted in (a) and a graphical representation of the inhibition percentage in the presence of 100 μM compound 1 is shown in (b).
# CHK2 = biological target: T3, CHK2 (Homo sapiens, UniProt O96017); assay: as above; assay type: biochemical; conditions: 100 μM compound; 10 μM ATP
# T3 construct: purchased Millipore (Upstate Kinase Profiler Panel Service)
# Description: as §1, §2
# CK2α = CK2α (Homo sapiens, UniProt P68400); assay: as above; assay type: biochemical; conditions: 100 μM compound; 10 μM ATP
# Description: as §1, §2
# CK2α2β2 = biological target: T4, CK2α2β2 (Homo sapiens, UniProt P68400); assay: as above; assay type: biochemical; conditions: 100 μM compound; 10 μM ATP
# T4 construct: purchased Millipore (Upstate Kinase Profiler Panel Service)
# Description: as §1, §2
# T2 sequence (P11309 whole entry): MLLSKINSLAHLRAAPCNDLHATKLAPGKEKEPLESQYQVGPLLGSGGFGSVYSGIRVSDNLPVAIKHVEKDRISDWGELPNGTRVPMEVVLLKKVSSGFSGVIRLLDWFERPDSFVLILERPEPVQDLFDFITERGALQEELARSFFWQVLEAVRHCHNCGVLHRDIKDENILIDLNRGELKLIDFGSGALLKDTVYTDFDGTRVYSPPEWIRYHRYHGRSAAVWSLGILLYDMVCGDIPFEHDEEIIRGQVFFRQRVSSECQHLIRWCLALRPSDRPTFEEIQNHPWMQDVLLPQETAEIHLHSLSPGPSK
# T1 sequence (P68400 whole entry): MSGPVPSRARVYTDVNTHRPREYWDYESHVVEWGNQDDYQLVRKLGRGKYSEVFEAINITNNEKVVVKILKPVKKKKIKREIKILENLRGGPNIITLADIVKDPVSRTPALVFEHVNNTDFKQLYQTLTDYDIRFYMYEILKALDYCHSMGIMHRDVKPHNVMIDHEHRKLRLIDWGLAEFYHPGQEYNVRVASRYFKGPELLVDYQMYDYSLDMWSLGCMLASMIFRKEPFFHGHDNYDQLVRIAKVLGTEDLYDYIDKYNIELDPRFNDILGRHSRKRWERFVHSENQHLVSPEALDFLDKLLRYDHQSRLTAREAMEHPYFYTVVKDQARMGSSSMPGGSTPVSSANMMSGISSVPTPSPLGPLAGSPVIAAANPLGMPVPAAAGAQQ
# Sequence of CK2α (P68400 whole entry): as above
# T4 sequence (P68400 whole entry): as above
# T3 sequence (O96017 whole entry): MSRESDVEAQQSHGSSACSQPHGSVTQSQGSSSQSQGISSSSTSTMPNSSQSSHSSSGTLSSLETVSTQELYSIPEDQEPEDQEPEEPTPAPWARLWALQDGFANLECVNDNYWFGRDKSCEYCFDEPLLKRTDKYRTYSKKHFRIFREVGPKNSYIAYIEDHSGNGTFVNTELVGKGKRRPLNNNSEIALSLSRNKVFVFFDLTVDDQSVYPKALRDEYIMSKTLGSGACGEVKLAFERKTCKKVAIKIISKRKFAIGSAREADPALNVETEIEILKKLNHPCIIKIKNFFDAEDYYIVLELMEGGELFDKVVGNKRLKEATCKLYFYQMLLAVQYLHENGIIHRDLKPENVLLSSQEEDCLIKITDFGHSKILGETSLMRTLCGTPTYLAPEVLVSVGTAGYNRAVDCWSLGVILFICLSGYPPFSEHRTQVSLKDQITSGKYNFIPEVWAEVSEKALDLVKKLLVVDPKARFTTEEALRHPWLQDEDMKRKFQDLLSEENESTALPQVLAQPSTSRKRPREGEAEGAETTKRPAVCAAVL
structure (smiles),measurement,setting,value
COc1[nH]c2ccc(F)cc2c1C(=O)OCC1CCN(CCNS(=O)(=O)c2ccccc2)CC1.Cl [Compound 6],growth inhibition in CK2β-depleted cells compared with WT cells,[1],twice more pronounced
same,CK2 activity in anti-CK2β precipitates,[2],significantly lower
COc1[nH]c2ccc(F)cc2c1C(=O)OCC1CCN(CCNS(C)(=O)=O)CC1 [Compound 1],inhibition at 100 µM,Pim-1,36%
same,inhibition at 100 µM,CHK2,24%
same,inhibition at 100 µM,CK2α,27%
same,inhibition at 100 µM,CK2α2β2,85%
